Experimental data: patent US6455041B1, “Immunogenic epitopes of the human zona pellucida protein (ZP1)” (priority 1998, dated 2002)

Legend:
[1] = test system: antibodies in sera of baboons administered electrophoretically purified, denatured porcine ZP proteins; assay: Biotinylated peptide assay, sera from baboons immunized with chemically deglycosylated, electrophoretically purified porcine ZP proteins; assay type: binding, baboon; settings: two baboons immunized with deglycosylated, FIGS. 3A-3B
Description: (§1) Peptides containing 15 amino acid residues, which overlapped by 9 amino acids, were designed to ensure that all potential epitopes would be identified. Biotinylated peptides (BP) containing 15-mers with a 9-amino acid overlap were synthesized by Chiron Mimotopes Pty. Ltd. (Victoria, Australia).
(§2) For the assay, streptavidin (Sigma Chemicals, S-4762) was diluted to 5 μg/ml in deionized water and dispensed at 100 μl well into 96-well microtiter plates (Immulon 2, Dynatech Labs) and plates are incubated overnight at 32° C. to evaporate to complete dryness. Plates were then rinsed four times in wash buffer of pH 7.3, consisting of 0.02M sodium phosphate containing 0.15M NaCl and 0.05% Tween 20. The plates were blocked using 200 μl 0.02M sodium phosphate buffered saline (PBS) containing 2% nonfat dried milk (pH 8.8) for 2 hours at room temperature and the rinse was repeated. Blocking and all incubations were carried out using a Minimix shaker (Fisher). […]
(§3) After rinsing with blocking solution, 100 μl/well of antibody solution was added and plates incubated at RT for 2 hours with shaking. […] The plates were incubated at RT with shaking for 45 minutes and read in a Titertek Multiskan reader at 405 nm. […]
Additional sera from baboons administered electrophoretically purified, denatured porcine ZP proteins as the immunogen (35), were evaluated. […]

[2] = test system: antibodies from rabbits immunized with heat solubilized, native porcine ZP proteins (HSZP); assay: Biotinylated peptide assay, pooled antisera from rabbits immunized with porcine ZP (HSPZ); assay type: binding, rabbit; settings: Complete Freund's Adjuvant, FIG. 1B
Description: as §1
as §2, with “(Fisher). Biotinylated peptides were then dispensed such that the final: dilution of each was 1:10,000 and was made in wash buffer containing 2% nonfat dried milk.” for “(Fisher).”
as §3

[3] = test system: antibodies from baboons immunized with HSZP; assay: Biotinylated peptide assay, antisera from baboons immunized with porcine ZP (HSPZ); assay type: binding, baboon; settings: for peptide recognition by sera of individual baboons: four baboons (#1994, #2020, #2044, #2032) immunized with HSZP, sera 3 weeks after second booster, dilution 1/1000, FIGS. 2A-2D; for peptide recognition by baboon serum pool: pooled antisera from baboons immunized with HSZP, TiterMax adjuvant, FIG. 1C
Description: Lyophilized porcine ZP immogen was prepared and solubilized in 0.1 M sodium carbonate, pH 9.6 and heated at 60° C. for ten minutes as previously described (42, 45). Immunogen was emulsified in Titer Max adjuvant (50%) by passage through syringes with 19 gauge needles connected by tygon tubing. Animals were sedated with Ketarmine (10 mg/kg) prior to injection with 200 μl containing ^150 μg ZP immunogen (primary and boosts). Animals were immunized and boosted at 3 week and 6 week intervals.
Blood samples were collected at approximately 3 week intervals following the booster injections, and were obtained from femoral veins under Ketamine sedation. Serum was isolated by conventional methods an conveyed frozen to the U.S.A. laboratory facility for analysis. For the present studies, serum samples taken at three weeks following the second booster injection were used. The ELISA assay previously described by Drell and Dunbar, 1984 (46) was used to determine the levels of antibody against immobilized HSPZ. Antisera previously obtained from baboons immunized against electrophoretically purified porcine ZP1 (35) were used as a positive control for these assays. Nonimmune sera from animals immunized with adjuvant alone were used as a negative control.
as §1
For the assay, streptavidin (Sigma Chemicals, S-4762) was diluted to 5 μg/ml in deionized water and dispensed at 100 μl well into 96-well microtiter plates (Immulon 2, Dynatech Labs) and plates are incubated overnight at 32° C. to evaporate to complete dryness. Plates were then rinsed four times in wash buffer of pH 7.3, consisting of 0.02M sodium phosphate containing 0.15M NaCl and 0.05% Tween 20. The plates were blocked using 200 μl 0.02M sodium phosphate buffered saline (PBS) containing 2% nonfat dried milk (pH 8.8) for 2 hours at room temperature and the rinse was repeated. Blocking and all incubations were carried out using a Minimix shaker (Fisher). Biotinylated peptides were then dispensed such that the final: dilution of each was 1:10,000 and was made in wash buffer containing 2% nonfat dried milk. Peptides (100 μl per well) were incubated overnight at 4° C. on the shaker.
Initially, each peptide was solubilized in 200 μl of DMSO per manufacturers' instructions and stored this long term at −80° C. Approximately 2 μl was used to make a 1:5,000 stock solution diluted in PBs containing 0.1% BSA and 0.1% sodium aside. These stocks were then stored at −20° C. and are diluted 1:10,000 for assays. […]

| Substance | peptide recognition by baboon sera [1] | peptide recognition by rabbit serum pool [2] | peptide recognition by sera of individual baboons [3] | peptide recognition by baboon serum pool [3] |
| --- | --- | --- | --- | --- |
| 54 (SGSGFPETQPGPLTLELQI; listed as Homo sapiens) [compound 54] | again recognized by the baboon sera | recognized by both serum pools | all four of the animals recognized | recognized by both serum pools |
| 55 (SGSGGPLTLELQIAKDKNY; listed as Homo sapiens) [compound 55] | again recognized by the baboon sera | recognized by both serum pools | all four of the animals recognized | recognized by both serum pools |
